Test results from patent US6302119A, “Low odor permanent waving compositions containing a disulfide” (priority 1999, dated 2001).
“Also recorded” adds a separate entry of the source.

Legend:
[1] = Odor evaluation by 3-4 panelists of activator, waving composition and hair tresses; settings: for Odor rating of waving composition (with activator): GMT alone 3.6; for Odor of hair rating: GMT alone 2.8; for Odor rating of activator (GMT + additive): GMT alone 3.8; for odor effect: additive in GMT, concentration not specified
Method: The disulfide or thiol additive was added in the concentration indicated in Tables 3 and 4, to 200 g of neat glyceryl monothioglycolate (GMr) in a 250 mL beaker.
Odor evaluation was conducted by 3-4 panelists who rated the odors on a scale of 1-5 where 1=no malodor and 5=extreme malodor. […] To this solution was added two tresses of dark brown, virgin hair (1 inch wide, 6 inches long), that had been washed with a 10% solution of SLS and soaked in synthetic sweate^8 at 37° C. for 17 hr, then lightly rinsed. The beaker containing the GMT activator was covered with foil and was allowed to sit for 5 to 10 minutes prior to odor evaluation. The tresses were then allowed to process in the wave composition for 20 minutes at room temperature in a covered beaker. The tresses were rinsed with tap water, towel blotted, then added to 80 mL of Matrix Opticurl Rebonding Neutralizer and processed for 5 minutes. After rinsing, the damp hair was evaluated for odor.
8. Recipe for synthetic sweat: 10 g sodium chloride, 1 g potassium hydrogen phosphate, 0.25 g histidine, lactic acid to adjust pH to 3.2 and water to make 1 L.

[2] = cited from earlier work; for waving performance: compared to TGA where stated; for odor: permanent wave
[3] = in vivo; cited from earlier work
[4] = thiol; cited from earlier work
[5] = gas chromatography; waving compositions; cited from earlier work
[6] = 0.005 wt % in GMT, scale 1-5, 1 = no malodor
[7] = 0.005 wt % in GMT, scale 1-5, 1 = no malodor, damp hair after neutralizer
[8] = 0.005 wt % in GMT, scale 1 = no malodor, 5 = extreme malodor, average of 3-4 panelists
[9] = 0.01 wt % in GMT, scale 1-5, 1 = no malodor
[10] = 0.1 wt % in GMT, scale 1-5, 1 = no malodor

In the case of `CC(C)CCCCCOC(=O)CSSCC(=O)OCCCCCC(C)C` [di-i-octyldithiodiglycolate], the “odor reduction” value ([1]; 0.005%) is reported as “removed the sulfur odor from GMT without adding the petroleum odor of the disulfide; also recorded: better than those were from the i-octylthioglycolate; also recorded: the waving composition and the hair smell more neutral, and less chemical than the other solutions; also recorded: essentially no odor left on the hair”, the “panelist preference vs GMT alone, formulation odor and post-perm hair odor” value ([1]; 0.005% in GMT, duplicate experiments) is reported as “all panelists preferred the GMT containing 0.005% disulfide compared to GMT alone” and the “Odor rating of waving composition (with activator)” value (“Odor rating of waving composition” for short) [1, 6] is reported as 2.1. The “Odor of hair rating” value [1, 7] was 1.1, the “Odor rating of activator (GMT + additive)” value (“Odor rating of activator” below) [1, 8] was 2.2 and the “odor reduction / odor detected” value ([1]; 0.01%) was “comparable odor results; also recorded: petroleum-like sulfur smell of the disulfide itself”. The “Odor of hair rating” value [1, 9] was 1.8, the “Odor rating of waving composition” value [1, 9] was 3.0 and the “Odor rating of activator” value [1, 9] was 2.5. For the same compound, the “Odor of hair rating” value [1, 10] was 2.8, the “Odor rating of waving composition” value [1, 10] was 2.3 and the “Odor rating of activator” value [1, 10] was 2.5. For the same compound, the “odor effect” value [1] was “reduces the thiol odor associated with a GMT wave in all three categories evaluated”.

For `CC(S)C(=O)O` (centres unmarked) [Thiolactic acid], the “waving performance” value [2] is given as “less efficient than TGA” and the “toxicology / mildness” value [3] is given as “milder on the epidermis”.

With `CCCCCCCSSCCCCCCC` [di-n-heptyldisulfide, di-n-heptyl disulfide] the “Odor rating of waving composition” value [1, 6] was 5, the “Odor rating of activator” value [1, 8] was 5 and the “Odor rating of waving composition” value [1, 9] was 5. For the same compound, the “Odor rating of activator” value [1, 9] was 5, the “odor effect” value [1] was “increased malodor compared to non-disulfide containing formulations” and the “odor effect” value ([1]; listed as diheptyldisulfide) was “produces an odor itself that is more disagreeable than the GMT odor alone”.

For `O=C(O)CS` [thioglycolic acid], the “waving performance” value [2] is listed as “good performance”, the “odor” value [2] is listed as “unpleasant odor” and the “toxicology / mildness” value [3] is listed as “good toxicology”.

For `NCCS` [Cysteamine], the “odor” value [2] is listed as “likened to burnt popcorn or corn chips” and the pKa [4] is listed as 8.6.

For `N[C@@H](CS)C(=O)O` [cysteine], the “waving performance” value [2] is given as “produces weaker curls than TGA” and the skin irritation [3] is given as “is an irritant”.

For `O=C(O)CS` [ammonium thioglycolate], the “hydrogen sulfide in headspace” value [5] is listed as “ppm levels”.

In the case of `O=C(CS)OCC(O)CO` (centres unmarked) [GMT, Glyceryl monothioglycolate], the “odor” value [2] is listed as “more pronounced from GMT (glyceryl monothioglycolate) acid waves, than from ATG (ammonium thioglycolate) alkaline waves”, the skin irritation [3] is listed as “causes skin irritation in some people” and the pKa [4] is listed as 7.8.

With `CCCCOC(=O)CSSCC(=O)OCCCC` [di-n-butyldithiodiglycolate] the “Odor rating of waving composition” value [1, 6] was 2.0, the “Odor of hair rating” value [1, 7] was 3.5 and the “Odor rating of activator” value [1, 8] was 2.0. For the same compound, the “Odor of hair rating” value [1, 9] was 4, the “Odor rating of waving composition” value [1, 9] was 3.8 and the “Odor rating of activator” value [1, 9] was 2.8. For the same compound, the “odor effect” value ([1]; listed as Di-butyldithiodiglycolate) was “effectively lowers odor in the activator and in the waving composition”, the “odor effect” value ([1]; listed as dibutyldithioglycolate) was “less of an odor reducing effect compared to di-i-octyldithiodiglycolate” and the “post-perm odor on hair” value ([1]; vs original GMT odor) was “leave a sulfur malodor on the hair that is more disagreeable than the original GMT odor”.
